SMILES strings stand for the structures.

This test relates to T1, lipase from Bacillus cereus ATA179.
T1 construct: gene extracellular lipase; 47 kDa by SDS-PAGE
The test is described as follows: lipase activity at varied tributyrin, Lineweaver-Burk plot. Format: biochemical. The conditions noted are these: tributyrin 0.1-1.2 mM; partially purified enzyme; pH and temperature of the kinetic assay not given.

As usually defined, the Km is the substrate concentration at which the rate is half of its maximum. On to `CCCC(=O)OCC(COC(=O)CCC)OC(=O)CCC` [tributyrin], for which the Michaelis constant (Km) turned out to be 110 µM.

Values taken from PMC8313942, “Lipase from new isolate Bacillus cereus ATA179: optimization of production conditions, partial purification, characterization and its potential in the detergent industry” (Turkish Journal of Biology, 2021).
